Assay results taken from patent US20240075093A1, “COMPOSITIONS AND METHODS OF TREATING A PI3K MEDIATED DISEASE” (VIRGINIA TECH INTELLECTUAL PROPERTIES, INC., priority 2020, published 2024).

Experiments:
[1] = biological target: p110γ (Homo sapiens, UniProt P48736); assay: PI3K subunit activity ELISA; type: biochemical; settings: 100 nM
Procedure: (§1) Relative activity is the ratio of respective treated groups to their non-treated controls.
(§2) Applicant also included a control scramble peptide containing the antennapedia sequence followed by the amino acid sequence of Ante-Selectide-18 randomly scrambled. […] Applicant reports that this drug is not effective at inhibiting the kinase activity of p110b or other PI3K subunits at 100 nM, showing the promise of the Ante-Selectide-18 peptide as a potent selective p110b inhibitor at a low dose.

[2] = biological target: p110δ (Homo sapiens, UniProt O00329); assay: PI3K subunit activity ELISA; type: biochemical; settings: 100 nM
Procedure: as §1, §2

[3] = biological target: p110c (Homo sapiens, UniProt P42336); assay: PI3K subunit activity ELISA; type: biochemical; settings: 100 nM
Procedure: as §1, §2

[4] = tested on: astrocytes; assay: MTS cell viability assay; type: cell-based, human; settings: 20 uM TGX-221 and 50 uM TMZ, 4 days
Procedure: (§3) Cell viability was measured by the MTS assay. P values were determined using the student t test or one-way ANOVA. Error bars represent three independent experiments.
(FIG. 46A) The effect of the αCT1/GSK/TMZ combo in VTC-103 cells. […] (FIG. 46B) The effect of the αCT1/GSK/TMZ combo in LN229 cells. (FIG. 46C) EOB scores of drug combinations in VTC-103 and LN229 cells. […] (FIG. 46E) EOB scores of drug combinations in astrocytes. One-way ANOVA with Dunnett test for correction of multiple comparisons or Student's t test was used to determine statistical significance. *: P<0.05; ns: not significant. Drug combinations with strong synergistic effect were marked in red.
Cell viability was determined by the MTS cell viability assay (Promega) as described previously 21,24-27. In brief, 250 to 1,000 cells were plated in the wells of a 96-well plate-based upon the cell growth rate. Because the drug treatment usually takes 6-7 days, fast-growing cells could be over-grown if plated at a high cell density. […] At each hour time point, the absorbance at 490 nm was measured using a FilterMax F3 microplate reader (Molecular Devices, LLC) according to the manufacturer's instructions. Percent cell viability was obtained by dividing the absorbance of treatment groups to those of untreated and respective vehicle control groups.

[5] = tested on: SF295 cells; assay: MTS cell viability assay; type: cell-based; settings: 20 uM TGX-221 and 50 uM TMZ, 4 days
Procedure: (FIG. 12A) p110βC2in. CPP: cell-penetrating peptide. Simulated p110βC2in (rainbow as represented in greyscale) is shown. (FIG. 12B) FITC-p110βC2in in LN229/GSCs was imaged using a fluorescence microscope. Upper: FITC; lower: bright view. (FIG. 12C) PI3K/AKT activity affected by 100 μM p110βC2in (+) or C2Scramble-1 (−). (FIG. 12D) MTS Cell viability assay. Cells were treated with 50 μM peptides for 4 days. Student t test was used to determine P values.
as §3
This scheme has been repeated in experiments presented hereafter. Cell viability was determined using the MTS viability assay. Percentages of cell viability were obtained by normalizing the MTS readings of treatment groups to that of DMSO group. (FIG. 34B) Scores of Excess Over Bliss (EOB) calculated using the Bliss Independence model. The drug combination is synergistic if EOB is more than 0%, additive if EOB equals to 0%, or antagonistic if EOB is less than 0%. […] (FIG. 34D) EOB scores of drug combinations in LN229 and VTC-001 cells. (FIG. 34E) Caspase 3/7 activity in VTC-103 and VTC-001 cells. The activity of cleaved caspase 3/7 (active) was determined using a luminescence assay. Shown are luminescence readings. (FIG. 34F) EOB scores of drug combinations in VTC-103 and VTC-001 cells. […] SF295 cells were subcutaneously injected into immuno-deficient mice. […] Tumor volumes are shown. […] Cell viability was determined using the MTS viability assay. Percentages of cell viability were obtained by normalizing the MTS readings of treatment groups to that of shNS group. […]
Cell viability was determined by the MTS cell viability assay (Promega) as described previously 21,24-27. […] At each hour time point, the absorbance at 490 nm was measured using a FilterMax F3 microplate reader (Molecular Devices, LLC) according to the manufacturer's instructions. Percent cell viability was obtained by dividing the absorbance of treatment groups to those of untreated and respective vehicle control groups.

[6] = biological target: p110b (Homo sapiens, UniProt P42338); assay: p110b activity ELISA (cell-free kinase assay); type: biochemical
From the text: The activity of the p110b PI3K catalytic subunit was monitored via ELISA upon increasing doses of Ante-Selectide-18.
as §1
(FIG. 51A) 3D of a p110β/p85α complex determined by SWISS-MODEL and Cluspro. (FIG. 51B) Protein sequences were aligned using COBALT. C2 domains (top) are show. Red bars: same residues; Grey bars: different residues; Red lines: missing residues. […] in p110β C2 (bottom) is shown and termed as 018. Docking of p110β and p85α (FIG. 51C) or p110α and p85α (FIG. 51D) was done by SWISS-MODEL, Cluspro, and Chimera. The 018 motif is labeled in magenta. Deletion of β18 motif (FIG. 51E) changed the 3D shapes of p110β/p85 (FIG. 51C). (FIG. 51F) p110β cell-free kinase assay. An enzyme-linked immunosorbent assay (ELISA) was used to measure levels of lipids PIP2/PIP3. (FIG. 51G) Effect of PI3K inhibitors on p110s using ELISA. p110β (FIG. 51H) or p110α (FIG. 51I) was docked with Selectide-18-bound p85α using Cluspro/Chimera.
as §2

[7] = tested on: PI3K/AKT signaling in SF295 cells; assay: immunoblotting of PI3K/AKT signaling in SF295 cells; type: cell-based

p110b, sequence (P42338 whole entry): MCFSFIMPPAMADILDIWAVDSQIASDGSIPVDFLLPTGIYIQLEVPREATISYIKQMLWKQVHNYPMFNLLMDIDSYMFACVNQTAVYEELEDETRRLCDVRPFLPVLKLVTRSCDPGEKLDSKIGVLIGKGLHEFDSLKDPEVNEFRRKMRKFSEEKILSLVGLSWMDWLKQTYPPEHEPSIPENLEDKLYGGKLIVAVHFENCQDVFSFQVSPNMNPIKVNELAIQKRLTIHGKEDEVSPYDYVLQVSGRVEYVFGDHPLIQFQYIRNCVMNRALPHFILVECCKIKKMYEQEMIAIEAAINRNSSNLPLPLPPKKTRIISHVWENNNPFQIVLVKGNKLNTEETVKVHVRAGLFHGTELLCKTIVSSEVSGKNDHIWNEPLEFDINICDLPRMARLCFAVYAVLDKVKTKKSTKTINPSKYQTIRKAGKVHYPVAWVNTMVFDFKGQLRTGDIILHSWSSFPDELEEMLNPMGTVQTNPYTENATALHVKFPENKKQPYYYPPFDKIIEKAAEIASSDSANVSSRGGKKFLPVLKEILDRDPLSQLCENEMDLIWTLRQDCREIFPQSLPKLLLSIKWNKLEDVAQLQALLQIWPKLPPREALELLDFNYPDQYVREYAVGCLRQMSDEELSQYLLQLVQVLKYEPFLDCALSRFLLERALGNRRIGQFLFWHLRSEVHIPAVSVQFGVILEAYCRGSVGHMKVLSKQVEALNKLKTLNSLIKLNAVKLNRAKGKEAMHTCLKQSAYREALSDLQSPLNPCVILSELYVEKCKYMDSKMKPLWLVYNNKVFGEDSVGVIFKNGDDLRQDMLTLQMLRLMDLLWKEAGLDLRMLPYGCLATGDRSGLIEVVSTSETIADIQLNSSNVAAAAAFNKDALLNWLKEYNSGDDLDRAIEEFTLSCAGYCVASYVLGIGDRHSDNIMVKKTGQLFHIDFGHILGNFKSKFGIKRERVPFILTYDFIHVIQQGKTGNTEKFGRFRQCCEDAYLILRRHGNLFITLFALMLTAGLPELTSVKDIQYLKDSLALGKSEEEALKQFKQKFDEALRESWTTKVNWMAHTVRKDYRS
p110c, sequence (P42336 whole entry): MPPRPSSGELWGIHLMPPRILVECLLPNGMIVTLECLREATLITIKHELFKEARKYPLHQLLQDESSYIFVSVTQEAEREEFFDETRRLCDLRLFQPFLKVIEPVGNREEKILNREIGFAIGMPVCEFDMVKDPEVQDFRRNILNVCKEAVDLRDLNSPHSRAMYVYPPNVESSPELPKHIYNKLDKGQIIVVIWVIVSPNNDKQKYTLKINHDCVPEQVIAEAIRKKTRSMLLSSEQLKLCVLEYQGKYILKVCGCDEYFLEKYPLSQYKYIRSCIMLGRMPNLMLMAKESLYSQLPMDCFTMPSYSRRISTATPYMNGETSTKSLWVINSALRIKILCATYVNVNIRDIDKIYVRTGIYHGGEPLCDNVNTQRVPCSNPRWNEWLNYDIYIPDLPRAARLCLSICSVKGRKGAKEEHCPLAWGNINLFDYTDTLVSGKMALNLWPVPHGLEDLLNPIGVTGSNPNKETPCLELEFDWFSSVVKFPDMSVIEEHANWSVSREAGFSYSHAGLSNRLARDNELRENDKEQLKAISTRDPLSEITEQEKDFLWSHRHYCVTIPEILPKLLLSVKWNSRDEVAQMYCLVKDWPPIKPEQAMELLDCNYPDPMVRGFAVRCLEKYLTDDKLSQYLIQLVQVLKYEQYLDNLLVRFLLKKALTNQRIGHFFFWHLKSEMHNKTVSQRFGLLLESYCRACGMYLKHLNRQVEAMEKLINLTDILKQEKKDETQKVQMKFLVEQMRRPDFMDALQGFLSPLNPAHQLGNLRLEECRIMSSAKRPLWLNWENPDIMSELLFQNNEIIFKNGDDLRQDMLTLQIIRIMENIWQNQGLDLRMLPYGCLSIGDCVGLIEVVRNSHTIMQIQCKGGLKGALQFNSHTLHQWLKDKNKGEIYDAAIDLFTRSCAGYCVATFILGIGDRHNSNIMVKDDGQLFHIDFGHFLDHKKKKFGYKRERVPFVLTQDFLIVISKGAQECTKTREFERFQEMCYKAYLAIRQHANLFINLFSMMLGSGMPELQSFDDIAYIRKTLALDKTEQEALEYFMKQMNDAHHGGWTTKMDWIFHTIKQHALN
p110δ, sequence (O00329 whole entry): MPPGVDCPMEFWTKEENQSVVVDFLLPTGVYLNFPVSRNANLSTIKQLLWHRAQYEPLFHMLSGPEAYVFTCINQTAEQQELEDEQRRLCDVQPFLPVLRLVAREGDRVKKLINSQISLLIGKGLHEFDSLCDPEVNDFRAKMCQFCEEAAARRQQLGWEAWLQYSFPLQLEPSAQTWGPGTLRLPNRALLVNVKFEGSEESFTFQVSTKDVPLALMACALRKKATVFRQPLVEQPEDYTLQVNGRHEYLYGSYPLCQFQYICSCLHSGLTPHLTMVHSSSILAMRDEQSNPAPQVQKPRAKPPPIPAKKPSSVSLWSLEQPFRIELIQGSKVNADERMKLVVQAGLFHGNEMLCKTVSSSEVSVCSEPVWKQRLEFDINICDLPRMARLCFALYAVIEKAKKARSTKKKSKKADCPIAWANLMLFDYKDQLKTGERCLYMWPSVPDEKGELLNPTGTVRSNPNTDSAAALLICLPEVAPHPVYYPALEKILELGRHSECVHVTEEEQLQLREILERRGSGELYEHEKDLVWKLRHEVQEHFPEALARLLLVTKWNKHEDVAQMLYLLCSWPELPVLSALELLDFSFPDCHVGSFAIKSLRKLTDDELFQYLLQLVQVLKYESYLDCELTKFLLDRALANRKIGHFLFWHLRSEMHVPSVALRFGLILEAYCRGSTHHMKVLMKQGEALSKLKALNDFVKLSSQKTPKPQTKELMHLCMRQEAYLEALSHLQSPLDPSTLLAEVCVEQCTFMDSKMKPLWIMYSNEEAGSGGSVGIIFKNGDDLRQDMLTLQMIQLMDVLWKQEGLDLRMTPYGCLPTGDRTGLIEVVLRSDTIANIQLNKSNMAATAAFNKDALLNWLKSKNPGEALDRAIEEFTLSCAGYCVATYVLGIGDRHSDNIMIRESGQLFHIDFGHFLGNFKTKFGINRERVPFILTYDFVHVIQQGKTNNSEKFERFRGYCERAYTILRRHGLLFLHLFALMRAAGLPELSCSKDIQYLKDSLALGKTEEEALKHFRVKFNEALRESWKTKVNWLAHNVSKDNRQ
p110δ, sequence (P27986 whole entry partner): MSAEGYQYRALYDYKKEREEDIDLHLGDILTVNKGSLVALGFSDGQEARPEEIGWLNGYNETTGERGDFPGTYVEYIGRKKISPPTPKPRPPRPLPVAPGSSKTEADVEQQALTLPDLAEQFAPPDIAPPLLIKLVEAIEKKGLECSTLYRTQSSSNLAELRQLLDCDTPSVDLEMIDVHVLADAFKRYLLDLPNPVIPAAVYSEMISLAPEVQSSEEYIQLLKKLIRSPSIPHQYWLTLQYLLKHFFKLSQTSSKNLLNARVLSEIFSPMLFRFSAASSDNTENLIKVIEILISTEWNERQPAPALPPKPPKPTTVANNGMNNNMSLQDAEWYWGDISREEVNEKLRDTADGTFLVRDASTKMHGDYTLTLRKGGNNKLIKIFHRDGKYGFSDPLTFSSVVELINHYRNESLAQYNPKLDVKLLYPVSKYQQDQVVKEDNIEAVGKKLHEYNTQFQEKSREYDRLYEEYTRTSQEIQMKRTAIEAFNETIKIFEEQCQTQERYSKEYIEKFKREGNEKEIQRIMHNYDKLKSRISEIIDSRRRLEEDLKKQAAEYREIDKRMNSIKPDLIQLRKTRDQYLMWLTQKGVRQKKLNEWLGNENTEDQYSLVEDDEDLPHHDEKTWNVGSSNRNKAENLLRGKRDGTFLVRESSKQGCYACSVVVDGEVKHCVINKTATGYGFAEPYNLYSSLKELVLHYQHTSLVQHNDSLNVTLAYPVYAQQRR
p110γ, sequence (P48736 whole entry): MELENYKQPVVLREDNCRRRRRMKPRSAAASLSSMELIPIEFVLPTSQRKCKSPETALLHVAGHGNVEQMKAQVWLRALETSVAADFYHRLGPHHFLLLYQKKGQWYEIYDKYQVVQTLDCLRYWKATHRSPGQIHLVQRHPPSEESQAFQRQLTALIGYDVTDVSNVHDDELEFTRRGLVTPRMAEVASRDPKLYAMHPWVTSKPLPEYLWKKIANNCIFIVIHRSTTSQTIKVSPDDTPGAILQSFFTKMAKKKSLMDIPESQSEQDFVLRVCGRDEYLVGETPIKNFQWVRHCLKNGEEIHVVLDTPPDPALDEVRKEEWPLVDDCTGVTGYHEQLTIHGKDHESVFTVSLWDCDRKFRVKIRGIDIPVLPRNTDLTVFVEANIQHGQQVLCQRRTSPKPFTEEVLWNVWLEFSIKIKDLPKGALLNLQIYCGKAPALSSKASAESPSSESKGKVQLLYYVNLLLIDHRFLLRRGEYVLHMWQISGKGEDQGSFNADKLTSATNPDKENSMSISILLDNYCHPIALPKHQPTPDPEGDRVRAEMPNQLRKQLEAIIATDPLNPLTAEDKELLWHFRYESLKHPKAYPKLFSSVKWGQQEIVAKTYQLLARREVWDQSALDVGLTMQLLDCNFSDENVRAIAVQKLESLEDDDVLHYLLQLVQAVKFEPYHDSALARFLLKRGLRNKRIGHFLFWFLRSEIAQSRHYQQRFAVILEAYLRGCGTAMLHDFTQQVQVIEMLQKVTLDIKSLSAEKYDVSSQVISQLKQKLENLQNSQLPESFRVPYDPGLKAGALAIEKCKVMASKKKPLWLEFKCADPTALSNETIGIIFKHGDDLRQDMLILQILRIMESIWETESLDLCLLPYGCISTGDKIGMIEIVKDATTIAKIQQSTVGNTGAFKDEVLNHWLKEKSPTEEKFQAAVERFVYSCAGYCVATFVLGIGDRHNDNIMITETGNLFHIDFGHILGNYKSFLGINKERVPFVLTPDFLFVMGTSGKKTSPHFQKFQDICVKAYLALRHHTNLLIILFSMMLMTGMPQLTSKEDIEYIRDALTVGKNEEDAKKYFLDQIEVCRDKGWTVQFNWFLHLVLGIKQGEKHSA

Cc1cc(C(C)Nc2ccccc2)c2nc(N3CCOCC3)cc(=O)n2c1 (stereo not shown) [TGX-221]
activity of PI3K subunit p110γ [1]: not effective
activity of PI3K subunit p110δ [2]: not effective
activity of PI3K subunit p110c [3]: not effective
effect of TGX-221 plus TMZ combination on astrocytes [4]: did not harm astrocytes
TMZ sensitivity [5]: increased TMZ sensitivity
activity of p110β ([6]; 10 nM TGX-221, ELISA): didn't inactivate p110β
activity of p110b ([6]; 100 nM, ELISA, isolated protein subunit): not effective
AKT and RAC1/CDC42 activity ([7]; 8 μM TGX-221, 24 hours): inactivated
protein levels of MMP2 ([7]; 8 μM TGX-221, 24 hours): not
protein levels of MMP9 ([7]; 8 μM TGX-221, 24 hours): decreased protein levels
BIM-EL, BIM-L, BIM-S (apoptotic forms of BIM) ([7]; 25 μM TGX-221, 96 hours): remarkable increase
cleaved caspase 3 (c-CASP3) ([7]; 25 μM TGX-221, 96 hours): remarkable increase
levels of pFOXO3T32 ([7]; 25 μM TGX-221, 96 hours): significantly decreased
